{
  "source": "paper PMC8585690",
  "about": "(Toxicology, 2021)",
  "key": {"[1]": {"system": "primary human hepatocytes or human iPSC-derived hepatocytes", "settings": "for underprediction of clearance by LAMPS compared to in vivo: Day 1 (24 hr) clearance vs in vivo intrinsic clearance"}, "plasma protein": {"system": "plasma protein", "settings": "cited from earlier work; for plasma free fraction, previously reported measurement: ref Sakolish et al. 2021; for Fub, plasma: representative range of literature-reported values, ref see Methods"}, "[2]": {"settings": "cited from earlier work; for estimated clearance: ref Kadam et al. 2013"}, "Hepatocyte": {"system": "Hepatocyte", "settings": "metabolizing enzymes and conjugation pathways; cited from earlier work"}, "[3]": {"assay": "Literature-based in vivo clinical clearance, AUC and bioavailability", "settings": "for mean oral clearance of available literature values: mean across studies, no further adjustment; for bioavailability: in vivo"}, "[4]": {"system": "primary human hepatocytes or human iPSC-derived hepatocytes", "assay": "Hepatic clearance in monolayer culture", "type": "in vitro ADME", "settings": "2D culture; in most cases primary cells exhibited greater clearance"}, "[5]": {"system": "primary human hepatocytes or human iPSC-derived hepatocytes", "settings": "as previously reported; ref Sakolish et al. 2021; cited from earlier work"}, "[6]": {"assay": "Plasma protein binding / plasma free fraction", "type": "in vitro ADME", "settings": "human"}, "[7]": {"system": "microphysiological system", "settings": "ref Marin et al. (2019); cited from earlier work"}},
  "note": "Several values for one entry are separate records, joined by “and”; a condition that tells them apart may be missing. Equal values may be shown once. Read-outs that look alike come from different tables or passages of the source.",
  "data": [
    {"smiles": "Cn1c(=O)c2c(ncn2C)n(C)c1=O", "note": "[Caffeine]", "values": [
      {"measurement": "in vitro intrinsic clearance as a function of time", "setting": "[1]; 10-day experimental period, all four model systems (2D and 3D, primary and iPSC-derived hepatocytes)", "value": "decline in clearance was also observed"},
      {"measurement": "underprediction of clearance by LAMPS compared to in vivo", "setting": "[1]", "value": "< 5", "unit": "fold"},
      {"measurement": "plasma free fraction", "setting": "plasma protein; equilibrium dialysis, ref Lelo et al. 1986", "value": 0.68},
      {"measurement": "plasma free fraction, previously reported measurement", "setting": "plasma protein", "value": 0.515},
      {"measurement": "Plasma protein binding, % free", "setting": "plasma protein; summary of Table 1 values", "value": "> 50", "unit": "% free"},
      {"measurement": "oral clearance", "setting": "[2]; human, ref Lelo et al. 1986", "value": 0.124, "unit": "L/h/kg"},
      {"measurement": "Hepatocyte metabolism", "setting": "Hepatocyte", "value": "CYPA2, xanthine oxidase, or N-acetyltransferase 2"},
      {"measurement": "oral clearance converted using 70 kg body weight", "setting": "[3]; human, from ref Lelo et al. 1986", "value": 8.7, "unit": "L/h"}
    ]},
    {"smiles": "CCc1ccc(CCOc2ccc(CC3SC(=O)NC3=O)cc2)nc1", "note": "(stereo not shown) [Pioglitazone]", "values": [
      {"measurement": "underprediction of clearance by LAMPS compared to in vivo", "setting": "[1]", "value": "< 5", "unit": "fold"},
      {"measurement": "plasma free fraction", "setting": "plasma protein; ref Eckland and Danhof 2000", "value": "< 0.03"},
      {"measurement": "plasma free fraction, previously reported measurement", "setting": "plasma protein", "value": 0.0441},
      {"measurement": "Fub, plasma", "setting": "plasma protein", "value": "0.008-0.04"},
      {"measurement": "estimated clearance", "setting": "[2]; \"wild type\" individuals", "value": 2.12, "unit": "L/h"},
      {"measurement": "estimated clearance", "setting": "[2]; CYP2C8*3 carrier", "value": 3.21, "unit": "L/h"},
      {"measurement": "oral clearance", "setting": "[2]; human, ref Eckland and Danhof 2000", "value": "0.038 L/h/kg and 0.0529 L/h/kg and 0.0478 L/h/kg"},
      {"measurement": "absorption", "setting": "[2]; ref Eckland and Danhof 2000", "value": 83, "unit": "%"},
      {"measurement": "daily AUC", "setting": "[2]; repeat dose, ref Budde et al. 2003", "value": "14,565 ug-hr/l"},
      {"measurement": "AUC", "setting": "[2]; single dose of 45 mg, ref Budde et al. 2003", "value": "17,387 ug-hr/l"},
      {"measurement": "Hepatocyte metabolism", "setting": "Hepatocyte", "value": "CYP2C8, CYP3A4, and conjugation with sulfate or glucuronic acid"},
      {"measurement": "mean oral clearance of available literature values", "setting": "[3]; human, oral", "value": 3.02, "unit": "L/h"},
      {"measurement": "mean oral clearance adjusted for absorption", "setting": "[3]; human, oral, mean of all available values, adjusted for incomplete absorption", "value": 2.51, "unit": "L/h"},
      {"measurement": "oral clearance converted using 70 kg body weight", "setting": "[3]; human, from ref Eckland and Danhof 2000", "value": "2.66 L/h and 3.7 L/h and 3.35 L/h"}
    ]},
    {"smiles": "CN(CCOc1ccc(CC2SC(=O)NC2=O)cc1)c1ccccn1", "note": "(stereo not shown) [Rosiglitazone]", "values": [
      {"measurement": "free fraction", "setting": "plasma protein; by ultrafiltration, ref Chapelsky et al. 2003", "value": 0.0016},
      {"measurement": "plasma free fraction, previously reported measurement", "setting": "plasma protein", "value": 0.0038},
      {"measurement": "Fub, plasma", "setting": "plasma protein", "value": "0.0016-0.036"},
      {"measurement": "oral clearance", "setting": "[2]; human, ref Chapelsky et al. 2003", "value": 3.07, "unit": "L/h"},
      {"measurement": "AUC", "setting": "[2]; i.v. dose of 2 mg, ref Cox et al. 2000", "value": 744, "unit": "ng·h/mL"},
      {"measurement": "AUC", "setting": "[2]; oral dose of 8 mg, ref Cox et al. 2000", "value": "2,900 ng-hr/ml and 2,930 ng-hr/ml"},
      {"measurement": "parent compound in feces", "setting": "[2]; radioactivity detected in feces, ref Cox et al. 2000", "value": "no parent compound was detected"},
      {"measurement": "Hepatocyte metabolism", "setting": "Hepatocyte", "value": "CYP2C8, CYP2C9, N-demethylation, and conjugation with sulfate or glucuronic acid"},
      {"measurement": "bioavailability", "setting": "[3]; human, oral, 8 mg", "value": 98, "unit": "%"},
      {"measurement": "mean oral clearance of available literature values", "setting": "[3]; human, oral", "value": 2.85, "unit": "L/h"}
    ]},
    {"smiles": "CC(C)(C)c1ccc(C(O)CCCN2CCC(C(O)(c3ccccc3)c3ccccc3)CC2)cc1", "note": "(stereo not shown) [Terfenadine]", "values": [
      {"measurement": "free fraction", "setting": "plasma protein; by ultrafiltration, ref Awni et al. 1997", "value": 0.003},
      {"measurement": "plasma free fraction, previously reported measurement", "setting": "plasma protein", "value": 0.0219},
      {"measurement": "Fub, plasma", "setting": "plasma protein", "value": "0.003-0.022"},
      {"measurement": "free fraction", "setting": "plasma protein; source cited was a review, ref McTavish et al. 1990", "value": 0.03},
      {"measurement": "AUC", "setting": "[2]; 60 mg dose, ref Bergstrom et al. 1997", "value": 24.6, "unit": "ng·h/mL"},
      {"measurement": "AUC", "setting": "[2]; 120 mg dose, ref Stern et al. 1998", "value": 20.14, "unit": "ng·h/mL"}
    ]},
    {"smiles": "Cc1ccc(C(=O)c2cc(O)c(O)c([N+](=O)[O-])c2)cc1", "note": "[Tolcapone]", "values": [
      {"measurement": "clearance in primary cells versus iPSC-derived hepatocytes", "setting": "[4]", "value": "the opposite was true"},
      {"measurement": "unbound fraction", "setting": "plasma protein; no source cited, ref Jorga et al. 1998", "value": "< 0.001"},
      {"measurement": "bound", "setting": "plasma protein; ref Jorga et al. 1998", "value": "> 99.9", "unit": "%"},
      {"measurement": "plasma free fraction, previously reported measurement", "setting": "plasma protein", "value": 0.002},
      {"measurement": "Fub, plasma", "setting": "plasma protein", "value": "<0.001-0.029"},
      {"measurement": "i.v. clearance", "setting": "[2]; ref Jorga et al. 1998", "value": 7.1, "unit": "L/h"},
      {"measurement": "oral clearance", "setting": "[2]; ref Jorga et al. 1998", "value": 11.43, "unit": "L/h"},
      {"measurement": "toxicity indicated by lactate dehydrogenase (LDH) and TNF-alpha release", "setting": "[5]", "value": "most toxic"},
      {"measurement": "Hepatocyte metabolism", "setting": "Hepatocyte", "value": "Conjugation with glucuronic acid"},
      {"measurement": "CL/F adjusted for oral absorption", "setting": "[3]; 11.43*0.68, from ref Jorga et al. 1998", "value": 7.8, "unit": "L/h"},
      {"measurement": "bioavailability", "setting": "[3]; human, oral", "value": 62, "unit": "%"}
    ]},
    {"smiles": "Cc1c(C)c2c(c(C)c1O)CCC(C)(COc1ccc(CC3SC(=O)NC3=O)cc1)O2", "note": "(stereo not shown) [Troglitazone]", "values": [
      {"measurement": "fraction unbound", "setting": "[6]", "value": 0.017},
      {"measurement": "mean unbound fraction", "setting": "plasma protein; by ultrafiltration, non-detects (one-third of subjects) not included, ref Ott et al. 1998", "value": 0.026},
      {"measurement": "plasma free fraction, previously reported measurement", "setting": "plasma protein", "value": 0.008},
      {"measurement": "Fub, plasma", "setting": "plasma protein", "value": "0.0009-0.017"},
      {"measurement": "AUC", "setting": "[2]; oral dose of 400 mg, ref Ott et al. 1998", "value": 7300, "unit": "ng·h/mL"},
      {"measurement": "oral clearance", "setting": "[2]; ref Loi et al. 1997", "value": 33.5, "unit": "L/h"},
      {"measurement": "oral clearance", "setting": "[2]; three values, ref Loi et al. 1999", "value": "30 L/h and 36.1 L/h and 29.8 L/h"},
      {"measurement": "Hepatocyte metabolism", "setting": "Hepatocyte", "value": "CYP3A4, and conjugation with sulfate or glucuronic acid"},
      {"measurement": "oral clearance converted to", "setting": "[3]; from ref Loi et al. 1997", "value": 33.5, "unit": "L/h"},
      {"measurement": "oral clearance converted to", "setting": "[3]; from ref Loi et al. 1999", "value": "29.8 L/h and 30 L/h and 36 L/h"},
      {"measurement": "mean oral clearance of available literature values", "setting": "[3]; human, oral", "value": 36.8, "unit": "L/h"}
    ]},
    {"smiles": "N[C@@H]1[C@H]2CN(c3nc4c(cc3F)c(=O)c(C(=O)O)cn4-c3ccc(F)cc3F)C[C@@H]12", "note": "[Trovafloxacin]", "values": [
      {"measurement": "free fraction in serum", "setting": "plasma protein; by equilibrium dialysis, ref Teng et al. 1995, Teng et al. 1996", "value": "0.3 and 0.238"},
      {"measurement": "AUC", "setting": "[2]; iv, 200 mg equivalent, ref Vincent et al. 1998", "value": 22000, "unit": "ng·h/mL"},
      {"measurement": "AUC", "setting": "[2]; oral, 200 mg equivalent, ref Vincent et al. 1998", "value": 32200, "unit": "ng·h/mL"},
      {"measurement": "toxicity indicated by lactate dehydrogenase (LDH) and TNF-alpha release", "setting": "[5]", "value": "most toxic"},
      {"measurement": "Hepatocyte metabolism", "setting": "Hepatocyte", "value": "N-Acetylation, and conjugation with glucuronic acid"},
      {"measurement": "bioavailability", "setting": "[3]; human, oral, 200 mg equivalent", "value": "> 100", "unit": "%"}
    ]},
    {"smiles": "CC(=O)Nc1ccc(O)cc1", "note": "[acetaminophen]", "values": [
      {"measurement": "half-life in the microphysiological system as compared to in vivo", "setting": "[7]", "value": 6, "unit": "fold"}
    ]}
  ]
}
